Source: EP3840748B1, “SUBSTITUTED IMIDAZOLES FOR THE INHIBITION OF TGF-BETA AND METHODS OF TREATMENT” (Clavius Pharmaceuticals, LLC, priority 2018, dated 2020)
Counter-ions that a name gives are not always drawn.

Assays:
[1] = system: TGF-beta 1 stimulated SBE-bla HEK 293T; experiment: GeneBLAzer beta-lactamase (bla) reporter, TGF-beta 1 stimulated SBE-bla HEK 293T cell-based assay (ThermoFisher SelectScreen); conditions: Homo sapiens; SBE-bla HEK 293T cells; 30 minutes pre-incubation with inhibitor; TGF-beta 1 0.03 nM, 5 hours; inhibitor 10,000nM to 0.316nM; read-out: Cells (SBE_HEK293T) IC50
Description: (§1) Table 2, below, describes the results of assays carried out on some compounds provided by the present disclosure. Exemplified compounds are confirmed to inhibit ALK5 activity in enzyme and cellular assays in the following assay systems conducted by ThermoFisher in Madison, WI according to their commercially available protocols.
ThermoFisher SelectScreen™ Cell-based Pathway Profiling Service GeneBLAzer Beta-lactamase (bla) Reporter Technology - TGF-beta 1 stimulated SBE-bla HEK 293T Cell-based Assay
SBE-bla HEK 293T cells are thawed and re-suspended in Assay Media (OPTI-MEM, 0.5% dialyzed FBS, 0.1 mM NEAA, 1 mM Sodium Pyruvate, 100 U/mL/100 µg/mL Pen/Strep) to a concentration of 625,000 cells/mL. 32 µL of cell suspension (20,000 cells) is added to each well of a 384-well Poly-D-Lysine assay plate. Cells in Assay Media are incubated for 16-24 hours in the plate at 37°C/5% CO2 in a humidified incubator. 4 µL of a 10X serial dilution of ALK5 inhibitors (10x = 100,000-3.16 nM) is added to appropriate wells of the plate and pre-incubated at 37°C/5% CO2 in a humidified incubator with cells for 30 minutes. Final concentration of inhibitor ranged from 10,000nM to 0.316nM. 4 µL of 10X TGF-beta 1 (final concentration of 0.03 nM) is added to wells containing the inhibitors. The plate is incubated for 5 hours at 37°C/5% CO2 in a humidified incubator. 8 µL of 1 µM Substrate Loading Solution is added to each well and the plate is incubated for 2 hours at room temperature before being read on a fluorescence plate reader. Percent inhibition is determined compared to DMSO only control (maximal TGF-beta 1 stimulation) and sigmoidal dose response curve fit yielded IC50 values as indicated in Table 2. TABLE 2: Biological activity assay results

TGFBR1 (ALK5) = molecular target: T1, TGFBR1 (ALK5) (Homo sapiens, UniProt P36897); experiment: LanthaScreen Eu Kinase Binding Assay TGFBR1 (ALK5) (ThermoFisher SelectScreen); conditions: ALK5 5 nM, Tracer #178 5 nM, Eu-anti-GST antibody 2 nM, 1 hour at room temperature, 1% DMSO; read-out: TβRI (ALK5) Binding IC50
T1 sequence (P36897 34-503): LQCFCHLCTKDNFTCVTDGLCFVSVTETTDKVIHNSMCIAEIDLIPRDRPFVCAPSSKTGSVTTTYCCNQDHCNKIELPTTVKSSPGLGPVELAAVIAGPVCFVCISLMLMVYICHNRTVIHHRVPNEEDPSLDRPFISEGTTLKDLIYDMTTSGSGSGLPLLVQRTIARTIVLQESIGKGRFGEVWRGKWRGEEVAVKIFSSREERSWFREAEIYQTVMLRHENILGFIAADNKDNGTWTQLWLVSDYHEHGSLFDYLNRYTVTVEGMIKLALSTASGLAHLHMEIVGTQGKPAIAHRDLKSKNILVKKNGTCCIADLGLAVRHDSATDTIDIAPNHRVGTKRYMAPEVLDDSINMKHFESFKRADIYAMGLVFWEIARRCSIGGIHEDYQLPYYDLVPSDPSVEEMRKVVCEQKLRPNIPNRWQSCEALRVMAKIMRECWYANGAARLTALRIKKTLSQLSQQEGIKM
Description: as §1
ThermoFisher SelectScreen™ Biochemical Kinase Profiling Service, LanthaScreen™Eu Kinase Binding Assay TGFBR1 (ALK5)
Exemplified compounds are screened in 1% DMSO (final concentration) by 3-fold serial dilutions from 10,000 nM to 0.316 nM or at single concentrations of 10,000, 1000 and 100 nM according to the following protocol. To low volume, white 384-well plates (Greiner Cat#784207) add 160 nL 100x compound in 100% DMSO, 3.84 uL kinase buffer (50 mM HEPES, pH 7.5, 0.01% BRIJ-35, 10 mM MgCl2, 1 mM EGTA), 8 uL 2x kinase/antibody mixture in kinase buffer (final ALK5 concentration of 5 nM; final Eu-anti-GST antibody concentration of 2 nM), 4 uL 4x Tracer #178 in kinase buffer (final concentration of 5 nM). Gently shake the plates for 30 seconds and incubate at room temperature for 1 hour before reading fluorescence on a plate reader. Percent inhibition is determined compared to DMSO only control (maximal ALK5 tracer binding) and sigmoidal dose response curve fit yielded IC50 values as indicated in Table 2.

Structure (SMILES) | IC50 [1] | IC50 (TGFBR1 (ALK5))
NC(=O)c1ncnc2ccc(-c3c(-c4ccn(C5CC5)n4)nc4sccn34)cc12 [Compound 96, 6-(6-(1-Cyclopropyl-1H-pyrazol-3-yl)imidazo[2,1-b]thiazol-5-yl)quinazoline-4-carboxamide] | 24.9 nM | 1.7 nM
CC(C)n1ccc(-c2nc3sccn3c2-c2ccc3nc[nH]c(=O)c3c2)n1 [Compound 97, 6-(6-(1-Isopropyl-1H-pyrazol-3-yl)imidazo[2,1-b]thiazol-5-yl)quinazolin-4(3H)-one hydrochloride] | 528 nM | 12.5 nM
